Common to all, as to assay type: cell-based
One assay has as its system K. edwardsii K1. Put plainly: agar serial dilution test (MIC). How it is done: (§1) The antibiotic activity in vitro of some compounds according to the invention and of some previously known compounds was tested by means of an agar serial dilution test. The following compounds were tested: 7β-[2-(2-Aminothiazol-4-yl)-2-diethylphosphoryloxyiminoacetamido] cephalosporanic acid (designated ES 643, 7β-[2-(2-amino- thiazol-4-yl)-2-dimethylphosphoryloxyiminoacetamido] cephalosporanic acid (designated ES 671), 7β-[2-(2-amino- thiazol-4-yl)-2-dimorpholinophosphoryloxyiminoacetamido] cephalosporanic acid (designated ES 656), 7β-[2-(2-amino- thiazol-4-yl)-2-methylmethylphosphonyloxyiminoacetamido] cephalosporanic acid (designated ES 682), 7β-[2-(2-amino- thiazol-4-yl)-2-hydroxyiminoacetamido] cephalosporanic acid (designated A), cefuroxime (designated B), and cephalotin (designated C). MIC designates minimum inhibitory concentration.

The next assay deals with E. coli 04. Put plainly: agar serial dilution test (MIC). How it is done:
as §1

For the next assay, the system named is P. morganii 69. Put plainly: agar serial dilution test (MIC). As for the experimental part: as §1
A further assay relates to S. aureus 13709. Put plainly: agar serial dilution test (MIC). How it is done:
as §1

Another assay relates to P. morganii 18. Put plainly: agar serial dilution test (MIC). How it is done:
as §1

The subject of another assay is S. pyogenes 12384. Put plainly: agar serial dilution test (MIC). How it is done: as §1
A further assay deals with S. albus 3578. Put plainly: agar serial dilution test (MIC). As for the experimental part:
as §1

In the next assay the test system is P. mirabilis 2255. Put plainly: agar serial dilution test (MIC). As for the experimental part:
as §1

Another assay relates to P. mirabilis 682. The assay can be described thus: agar serial dilution test (MIC). As for the experimental part:
as §1

A further assay has as its system P. vulgaris 5209. Put plainly: agar serial dilution test (MIC). As for the experimental part: as §1
The subject of another assay is S. aureus 209P. The assay can be described thus: agar serial dilution test (MIC). As to conditions: Staphylococcus aureus. As for the experimental part:
as §1

The test system of a further assay is S. albus 12228. Put plainly: agar serial dilution test (MIC). How it is done:
as §1

The subject of a further assay is E. coli 01. Put plainly: agar serial dilution test (MIC). As for the experimental part: as §1
The test system of another assay is K. pneumoniae K8. Put plainly: agar serial dilution test (MIC). The note with it: Klebsiella pneumoniae. As for the experimental part: as §1
The subject of another assay is S. aureus 3356. The assay can be described thus: agar serial dilution test (MIC). As for the experimental part:
as §1

For the next assay, the system named is P. vulgaris 16868. Put plainly: agar serial dilution test (MIC). How it is done:
as §1

A further assay concerns P. mirabilis 2311. Put plainly: agar serial dilution test (MIC). How it is done:
as §1

Another assay deals with S. aureus 3349. The assay can be described thus: agar serial dilution test (MIC). As for the experimental part: as §1
The subject of a further assay is P. vulgaris 17028. The assay can be described thus: agar serial dilution test (MIC). As for the experimental part: as §1
For the next assay, the system named is S. albus 3348. Put plainly: agar serial dilution test (MIC). How it is done:
as §1

Another assay has as its system S. pyogenes 12334. The assay can be described thus: agar serial dilution test (MIC). As for the experimental part:
as §1

The subject of a further assay is P. vulgaris ATCC 6897. Put plainly: MIC value stated in Example 8. The note with it: Proteus vulgaris, ATCC6897; against P. vulgaris ATCC 6897.
Setting [1] is: Escherichia coli, 04, read-out: MIC value in μg/ml.
The mark [2] stands for this setting: Morganella morganii, 69, read-out: MIC value in μg/ml.
Where [3] appears, read: Staphylococcus aureus, 13709, read-out: MIC value in μg/ml.
[4] abbreviates: Morganella morganii, 18, read-out: MIC value in μg/ml.
Where [5] appears, read: Streptococcus pyogenes, 12384, read-out: MIC value in μg/ml.
[6] abbreviates: Staphylococcus albus, 3578, read-out: MIC value in μg/ml.
The mark [7] stands for this setting: Proteus mirabilis, 2255, read-out: MIC value in μg/ml.
Where [8] appears, read: Proteus mirabilis, 682, read-out: MIC value in μg/ml.
[9] abbreviates: Proteus vulgaris, 5209, read-out: MIC value in μg/ml.
The mark [10] stands for this setting: 209P, read-out: MIC value in μg/ml.
Where [11] appears, read: Staphylococcus albus, 12228, read-out: MIC value in μg/ml.
Where [12] appears, read: Escherichia coli, 01, read-out: MIC value in μg/ml.
The mark [13] stands for this setting: K8, read-out: MIC value in μg/ml.
[14] abbreviates: Staphylococcus aureus, 3356, read-out: MIC value in μg/ml.
Where [15] appears, read: Proteus vulgaris, 16868, read-out: MIC value in μg/ml.
The mark [16] stands for this setting: Proteus mirabilis, 2311, read-out: MIC value in μg/ml.
The mark [17] stands for this setting: Staphylococcus aureus, 3349, read-out: MIC value in μg/ml.
[18] abbreviates: Proteus vulgaris, 17028, read-out: MIC value in μg/ml.
The mark [19] stands for this setting: Staphylococcus albus, 3348, read-out: MIC value in μg/ml.
Where [20] appears, read: Streptococcus pyogenes, 12334, read-out: MIC value in μg/ml.

Converted amounts (≈) assume the structure as drawn. Read-outs that look alike come from different tables or passages of the source. A value given as a limit tells only on which side of the number the result lay.

In the case of `CC(=O)OCC1=C(C(=O)O)N2C(=O)C(NC(=O)C(=NO)c3csc(N)n3)C2SC1` (stereo not drawn) [A, 7β-[2-(2-amino-thiazol-4-yl)-2-hydroxyiminoacetamido] cephalosporanic acid, reference compound], the MIC was 0.2 µg/mL (≈ 0.453 µM) in the assay on K. edwardsii K1 (K. edwardsii K1, read-out: MIC value); 0.2 µg/mL (≈ 0.453 µM) in the assay with E. coli 04 (Escherichia coli, E. coli 04, read-out: MIC value); 0.2 µg/mL (≈ 0.453 µM) with P. morganii 69 (Morganella morganii, P. morganii 69, read-out: MIC value); 1.6 µg/mL (≈ 3.62 µM) in the assay on S. aureus 13709 (Staphylococcus aureus, S. aureus 13709, read-out: MIC value); 0.2 µg/mL (≈ 0.453 µM) in the assay on P. morganii 18 (Morganella morganii, P. morganii 18, read-out: MIC value); less than 0.1 µg/mL with S. pyogenes 12384 (Streptococcus pyogenes, S. pyogenes 12384, read-out: MIC value). For the same molecule, the MIC was 0.8 µg/mL (≈ 1.81 µM) in the assay on S. albus 3578 (Staphylococcus albus, S. albus 3578, read-out: MIC value); less than 0.1 µg/mL in the assay on P. mirabilis 2255 (Proteus mirabilis, P. mirabilis 2255, read-out: MIC value); less than 0.1 µg/mL in the assay with P. mirabilis 682 (Proteus mirabilis, P. mirabilis 682, read-out: MIC value); 6.2 µg/mL (≈ 14 µM) in the assay on P. vulgaris 5209 (Proteus vulgaris, P. vulgaris 5209, read-out: MIC value); 1.6 µg/mL (≈ 3.62 µM) in the assay with S. aureus 209P (S. aureus 209P, read-out: MIC value); 0.8 µg/mL (≈ 1.81 µM) with S. albus 12228 (Staphylococcus albus, S. albus 12228, read-out: MIC value). The MIC in the assay with E. coli 01 (Escherichia coli, E. coli 01, read-out: MIC value) is less than 0.1 µg/mL; with K. pneumoniae K8 (K. pneumoniae K8, read-out: MIC value) it was 0.4 µg/mL (≈ 0.906 µM); with S. aureus 3356 (Staphylococcus aureus, S. aureus 3356*, penicillin-resistant strain, read-out: MIC value), 0.8 µg/mL (≈ 1.81 µM); with P. vulgaris 16868 (Proteus vulgaris, P. vulgaris 16868, read-out: MIC value), 1.6 µg/mL (≈ 3.62 µM); in the assay with P. mirabilis 2311 (Proteus mirabilis, P. mirabilis 2311, read-out: MIC value), less than 0.1 µg/mL; with S. aureus 3349 (Staphylococcus aureus, S. aureus 3349*, penicillin-resistant strain, read-out: MIC value), 1.6 µg/mL (≈ 3.62 µM). The MIC is 0.8 µg/mL (≈ 1.81 µM) with P. vulgaris 17028 (Proteus vulgaris, P. vulgaris 17028, read-out: MIC value); 0.8 µg/mL (≈ 1.81 µM) in the assay on S. albus 3348 (Staphylococcus albus, S. albus 3348, read-out: MIC value); less than 0.1 µg/mL in the assay on S. pyogenes 12334 (Streptococcus pyogenes, S. pyogenes 12334, read-out: MIC value).
In the case of `COP(=O)(O)ON=C(C(=O)NC1C(=O)N2C(C(=O)O)=C(COC(C)=O)CSC12)c1csc(N)n1` (stereo not shown) [Example 8b], the MIC against P. vulgaris ATCC 6897 was 0.2 µg/mL (≈ 0.374 µM).
For the molecule `COP(=O)(OC)ON=C(C(=O)NC1C(=O)N2C(C(=O)O)=C(COC(C)=O)CSC12)c1csc(N)n1` (stereo not drawn) [ES 671, 7β-[2-(2-amino-thiazol-4-yl)-2-dimethylphosphoryloxyiminoacetamido] cephalosporanic acid], the MIC with K. edwardsii K1 (read-out: MIC value in μg/ml) is 0.2 µg/mL (≈ 0.364 µM); in the assay with E. coli 04 (setting [1]) it was 0.4 µg/mL (≈ 0.728 µM); in the assay on P. morganii 69 (setting [2]), 0.4 µg/mL (≈ 0.728 µM); with S. aureus 13709 (setting [3]), 1.6 µg/mL (≈ 2.91 µM); with P. morganii 18 (setting [4]), less than 0.1 µg/mL; in the assay on S. pyogenes 12384 (setting [5]), less than 0.1 µg/mL. In addition, the MIC is 0.8 µg/mL (≈ 1.46 µM) in the assay on S. albus 3578 (setting [6]); 0.1 µg/mL (≈ 0.182 µM) with P. mirabilis 2255 (setting [7]); less than 0.1 µg/mL in the assay on P. mirabilis 682 (setting [8]); 0.2 µg/mL (≈ 0.364 µM) with P. vulgaris 5209 (setting [9]); 3.1 µg/mL (≈ 5.64 µM) with S. aureus 209P (setting [10]); 0.4 µg/mL (≈ 0.728 µM) in the assay with S. albus 12228 (setting [11]). The MIC in the assay on E. coli 01 (setting [12]) was 0.2 µg/mL (≈ 0.364 µM); in the assay with K. pneumoniae K8 (setting [13]) it was 0.4 µg/mL (≈ 0.728 µM); with S. aureus 3356 (setting [14]) it was 1.6 µg/mL (≈ 2.91 µM); with P. vulgaris 16868 (setting [15]) it was less than 0.1 µg/mL; with P. mirabilis 2311 (setting [16]), less than 0.1 µg/mL; in the assay with S. aureus 3349 (setting [17]) it was 1.6 µg/mL (≈ 2.91 µM). For the same molecule, the MIC is less than 0.1 µg/mL with P. vulgaris 17028 (setting [18]), 0.8 µg/mL (≈ 1.46 µM) in the assay with S. albus 3348 (setting [19]) and less than 0.1 µg/mL with S. pyogenes 12334 (setting [20]).
As to `CCOP(=O)(OCC)ON=C(C(=O)NC1C(=O)N2C(C(=O)O)=C(COC(C)=O)CSC12)c1csc(N)n1` (stereo not drawn) [ES 643, 7β-[2-(2-Aminothiazol-4-yl)-2-diethylphosphoryloxyiminoacetamido] cephalosporanic acid], the MIC in the assay with K. edwardsii K1 (read-out: MIC value in μg/ml) was 0.8 µg/mL (≈ 1.39 µM); in the assay on E. coli 04 (setting [1]), 0.8 µg/mL (≈ 1.39 µM); in the assay with P. morganii 69 (setting [2]) it was 0.2 µg/mL (≈ 0.346 µM); in the assay on S. aureus 13709 (setting [3]) it was 3.1 µg/mL (≈ 5.37 µM); with P. morganii 18 (setting [4]), 1.6 µg/mL (≈ 2.77 µM); with S. pyogenes 12384 (setting [5]), less than 0.1 µg/mL. Further, the MIC with S. albus 3578 (setting [6]) was 1.6 µg/mL (≈ 2.77 µM); in the assay on P. mirabilis 2255 (setting [7]), less than 0.1 µg/mL; in the assay on P. mirabilis 682 (setting [8]) it was less than 0.1 µg/mL; in the assay with P. vulgaris 5209 (setting [9]) it was 0.8 µg/mL (≈ 1.39 µM); with S. aureus 209P (setting [10]), 3.1 µg/mL (≈ 5.37 µM); in the assay on S. albus 12228 (setting [11]), 1.6 µg/mL (≈ 2.77 µM). Also, the MIC was 0.2 µg/mL (≈ 0.346 µM) in the assay on E. coli 01 (setting [12]); 1.6 µg/mL (≈ 2.77 µM) in the assay with K. pneumoniae K8 (setting [13]); 1.6 µg/mL (≈ 2.77 µM) with S. aureus 3356 (setting [14]); 0.2 µg/mL (≈ 0.346 µM) with P. vulgaris 16868 (setting [15]); less than 0.1 µg/mL in the assay with P. mirabilis 2311 (setting [16]); 1.6 µg/mL (≈ 2.77 µM) in the assay with S. aureus 3349 (setting [17]). In addition, the MIC in the assay with P. vulgaris 17028 (setting [18]) is 0.2 µg/mL (≈ 0.346 µM); in the assay with S. albus 3348 (setting [19]), 0.8 µg/mL (≈ 1.39 µM); in the assay with S. pyogenes 12334 (setting [20]), less than 0.1 µg/mL.

(Values after EP0018155A2, “Novel cephalosporin compounds, a process for the preparation thereof, pharmaceutical compositions containing the same and the use thereof as a therapeutic agent against a microorganism” (NOVO NORDISK A/S, priority 1979, dated 1980).)
